Experimental data taken from US20230053540A1, “TREATMENT OF LIVER INJURY” (Massachusetts Institute of Technology, priority 2019, published 2023).

Tested on: hepatocytes
Assay: Seq-Well scRNA-Seq of hepatocytes after APAP overdose (signature scores, DEG vs untreated)
Type: in vivo, mouse
Details: A6 vs UT

CC(=O)Nc1ccc(O)cc1 [APAP, acetaminophen]
Slc25a10 avg_logFC: −0.2828
Slc25a10 pct.1: 0.351
Slc25a47 avg_logFC: 0.4289
Slc25a51 A6logFC: 0.264
Slc25a51 avg_logFC: 0.264
Slc25a51 pct.1: 0.308
Slc26a1 A6logFC: −0.2817
Slc26a1 avg_logFC: −0.2817
Slc26a1 pct.1: 0.329
Slc30a1 A6logFC: 0.2506
Slc30a1 avg_logFC: 0.2506
Slc30a1 pct.1: 0.346
Slc35d1 A6logFC: 0.3094
Slc35d1 avg_logFC: 0.3094
Slc35d1 pct.1: 0.489
Slc38a3 avg_logFC: −0.4098
Slc38a3 pct.1: 0.663
Slc39a14 avg_logFC: 1.013
Slc40a1 avg_logFC: 0.467
Slc40a1 pct.1: 0.456
Slirp A6logFC: −0.3085
Smoc1 A6logFC: 0.2616
Smoc1 avg_logFC: 0.2616
Smoc1 pct.1: 0.368
Snx10 A6logFC: 0.2856
Snx10 avg_logFC: 0.2856
Snx10 pct.1: 0.341
Sod1 avg_logFC: −0.4393
Son avg_logFC: 0.5429
Son pct.1: 0.601
Sord avg_logFC: −0.3836
Sord pct.1: 0.754
Spag9 A6logFC: 0.3188
Spag9 avg_logFC: 0.3188
Spag9 pct.1: 0.415
Spcs1 A6logFC: −0.2629
Spcs1 avg_logFC: −0.2629
Spcs1 pct.1: 0.236
Spp2 avg_logFC: −0.3821
Spp2 pct.1: 0.334
Spred1 avg_logFC: 0.3884
Spred1 pct.1: 0.308
Sptan1 A6logFC: 0.3127
Sptan1 avg_logFC: 0.3127
Sptan1 pct.1: 0.348
Sptbn1 avg_logFC: 0.4227
Sptbn1 pct.1: 0.439
Sqstm1 avg_logFC: 0.7432
Srd5a1 A6logFC: −0.2773
Srd5a1 avg_logFC: −0.2773
Srd5a1 pct.1: 0.308
Srgn avg_logFC: 0.9341
Srrm2 A6logFC: 0.3282
Srrm2 avg_logFC: 0.3282
Srrm2 pct.1: 0.456
Srxn1 avg_logFC: 1.878
Ssr4 avg_logFC: −0.5076
Ssr4 pct.1: 0.413
St3gal1 avg_logFC: 0.5287
St3gal4 A6logFC: 0.275
St3gal4 avg_logFC: 0.275
St3gal4 pct.1: 0.368
St3gal5 avg_logFC: 0.6076
Stard10 avg_logFC: −0.3383
Stard10 pct.1: 0.876
Stat3 avg_logFC: 0.7154
Stbd1 A6logFC: −0.2732
Steap4 avg_logFC: 0.4372
Steap4 pct.1: 0.37
Stk40 avg_logFC: 0.5364
Suco A6logFC: 0.251
Suco avg_logFC: 0.251
Suco pct.1: 0.26
Sult1a1 avg_logFC: 0.319
Sult1a1 pct.1: 0.685
Supt6 A6logFC: 0.2913
Supt6 avg_logFC: 0.2913
Supt6 pct.1: 0.291
Swi5 A6logFC: −0.2621
Swi5 avg_logFC: −0.2621
Swi5 pct.1: 0.341
Syncrip A6logFC: 0.2748
Syncrip avg_logFC: 0.2748
Syncrip pct.1: 0.365
Tab2 A6logFC: 0.3484
Tab2 avg_logFC: 0.3484
Tab2 pct.1: 0.425
Tacc2 avg_logFC: 0.3293
Tacc2 pct.1: 0.289
Tars avg_logFC: 0.4921
Tars pct.1: 0.666
Tatdn2 avg_logFC: 0.3733
Tatdn2 pct.1: 0.334
Tbc1d15 avg_logFC: 0.4886
Tbc1d15 pct.1: 0.461
Tbca A6logFC: −0.2726
Tbca avg_logFC: −0.2726
Tbca pct.1: 0.284
Tcerg1 avg_logFC: 0.3575
Tcerg1 pct.1: 0.305
Tfpi2 avg_logFC: −0.3663
Tfpi2 pct.1: 0.155
Timm13 avg_logFC: −0.433
Timm13 pct.1: 0.418
Tiparp avg_logFC: 0.5456
Tjp2 avg_logFC: 0.4115
Tjp2 pct.1: 0.332
Tln1 A6logFC: 0.321
Tln1 avg_logFC: 0.321
Tln1 pct.1: 0.31
Tm4sf4 avg_logFC: 0.5126
Tm4sf4 pct.1: 0.484
Tmed5 avg_logFC: 0.4016
Tmed5 pct.1: 0.594
Tmem14c avg_logFC: −0.3685
Tmem14c pct.1: 0.332
Tmem37 A6logFC: −0.2822
Tmem86b A6logFC: −0.2582
Tmem87b avg_logFC: 0.4344
Tmem87b pct.1: 0.351
Tmem147 A6logFC: 0.2838
Tmem150a A6logFC: −0.2535
Tmem160 A6logFC: −0.339
Tmem205 avg_logFC: −0.7747
Tmem242 A6logFC: −0.2725
Tmem256 avg_logFC: −0.5185
Tmem256 pct.1: 0.375
Tmem258 A6logFC: −0.2769
Tmprss6 A6logFC: −0.2802
Tmprss6 avg_logFC: −0.2802
Tmprss6 pct.1: 0.551
Tmsb4x avg_logFC: 0.7806
Tnfrsf1a avg_logFC: 0.5996
Tnfrsf12a avg_logFC: 1.118
Tnks2 A6logFC: 0.3176
Tns1 avg_logFC: 0.4349
Tns1 pct.1: 0.403
Tpi1 A6logFC: −0.2616
Tpi1 avg_logFC: −0.2616
Tpi1 pct.1: 0.539
Tpr A6logFC: 0.4409
Tra2a avg_logFC: 0.7123
Trf avg_logFC: −0.2619
Trf pct.1: 0.988
Trib1 avg_logFC: 0.3317
Trib1 pct.1: 0.411
Trip11 A6logFC: 0.3479
Trip11 avg_logFC: 0.3479
Trip11 pct.1: 0.341
Trp53inp1 avg_logFC: 1.008
Tsc22d1 A6logFC: −0.2997
Tsc22d2 avg_logFC: 0.3911
Tsc22d2 pct.1: 0.353
Tsku avg_logFC: 0.3676
Tsku pct.1: 0.327
Tspan31 A6logFC: −0.2959
Tspan31 avg_logFC: −0.2959
Tspan31 pct.1: 0.415
Tspo A6logFC: −0.3157
Tsr1 avg_logFC: 0.3603
Tsr1 pct.1: 0.341
Ttc36 avg_logFC: −0.6606
Ttr avg_logFC: −0.5306
Tubb2a avg_logFC: 0.7494
Tubb6 avg_logFC: 0.5767
Tyrobp avg_logFC: 0.4666
Ubb A6logFC: −0.275
Ubc avg_logFC: −0.6618
Ubr4 A6logFC: 0.3301
Ubr4 avg_logFC: 0.3301
Ubr4 pct.1: 0.411
Ubr5 A6logFC: 0.3057
Ubr5 avg_logFC: 0.3057
Ubr5 pct.1: 0.399
Ugdh avg_logFC: 0.6331
Ugt2b5 avg_logFC: −0.6034
Ugt2b36 avg_logFC: −0.5834
Ugt3a2 A6logFC: −0.2586
Ugt3a2 avg_logFC: −0.2586
Ugt3a2 pct.1: 0.492
Uhrf1bp1l avg_logFC: 0.4198
Uhrf1bp1l pct.1: 0.399
Uox avg_logFC: −0.5531
Upp2 avg_logFC: −0.6903
Uqcr10 avg_logFC: −0.4519
Uqcr10 pct.1: 0.561
Uqcr11 avg_logFC: −0.6031
Uqcrb avg_logFC: −0.4084
Uqcrb pct.1: 0.425
Uqcrh avg_logFC: −0.4292
Uqcrh pct.1: 0.589
Urah avg_logFC: −0.7641
Usp4 avg_logFC: 0.28
Usp4 pct.1: 0.439
Usp7 A6logFC: 0.2873
Usp7 avg_logFC: 0.2873
Usp7 pct.1: 0.363
Usp9x avg_logFC: 0.3184
Usp9x pct.1: 0.451
Usp34 A6logFC: 0.2859
Usp34 avg_logFC: 0.2859
Usp34 pct.1: 0.37
